Data from ChEMBL document CHEMBL3044672, “N9- and N7-(Chloromethyl Phenymethyl)Chloropurine Derivatives from , '-Dichloroxylenes: Synthesis and Anticancer Activity” (2005).

Columns and labels:
Assay type in all cases: functional
[1] = tested on: SK-OV-3; assay: Cytotoxicity against Homo sapiens (human) SKOV3 cells after 48 hr by sulforhodamine B assay; conditions: SK-OV-3, 48 h
[2] = tested on: OVCAR-4; assay: Cytotoxicity against Homo sapiens (human) OVCAR4 cells after 48 hr by sulforhodamine B assay; conditions: OVCAR-4, 48 h
[3] = tested on: UACC-62; assay: Cytotoxicity against Homo sapiens (human) UACC62 cells after 48 hr by sulforhodamine B assay; conditions: UACC-62, 48 h
[4] = tested on: UACC-257; assay: Cytotoxicity against Homo sapiens (human) UACC257 cells after 48 hr by sulforhodamine B assay; conditions: UACC-257, 48 h
[5] = tested on: LOX IMVI; assay: Cytotoxicity against Homo sapiens (human) LOXIMVI cells after 48 hr by sulforhodamine B assay
[6] = tested on: SNB-75; assay: Cytotoxicity against Homo sapiens (human) SNB75 cells after 48 hr by sulforhodamine B assay; conditions: SNB-75, 48 h; for CC50: read-out: LC50 (the source's name)
[7] = tested on: Hs-578T; assay: Cytotoxicity against Homo sapiens (human) Hs 578T cells after 48 hr by sulforhodamine B assay
[8] = Cytotoxicity against Homo sapiens (human) NCI-ADR-RES cells after 48 hr by sulforhodamine B assay
[9] = tested on: MDA-MB-231; assay: Cytotoxicity against Homo sapiens (human) MDA-MB-231 cells after 48 hr by sulforhodamine B assay; conditions: MDA-MB-231, 48 h
[10] = tested on: TK-10; assay: Cytotoxicity against Homo sapiens (human) TK10 cells after 48 hr by sulforhodamine B assay; conditions: TK-10, 48 h; for CC50: read-out: LC50 (the source's name)
[11] = tested on: RXF 393; assay: Cytotoxicity against Homo sapiens (human) RXF393 cells after 48 hr by sulforhodamine B assay; conditions: RXF 393, 48 h; for CC50: read-out: LC50 (the source's name)
[12] = tested on: SF-268; assay: Cytotoxicity against Homo sapiens (human) SF268 cells after 48 hr by sulforhodamine B assay; conditions: SF-268, 48 h; for CC50: read-out: LC50 (the source's name)
[13] = tested on: KM12; assay: Cytotoxicity against Homo sapiens (human) KM12 cells after 48 hr by sulforhodamine B assay; conditions: KM12, 48 h; for CC50: read-out: LC50 (the source's name)
[14] = tested on: HCT-15; assay: Cytotoxicity against Homo sapiens (human) HCT15 cells after 48 hr by sulforhodamine B assay; conditions: HCT-15, 48 h; for CC50: read-out: LC50 (the source's name)
[15] = tested on: HCT-116; assay: Cytotoxicity against Homo sapiens (human) HCT116 cells after 48 hr by sulforhodamine B assay; conditions: HCT-116, 48 h; for CC50: read-out: LC50 (the source's name)
[16] = tested on: HCC 2998; assay: Cytotoxicity against Homo sapiens (human) HCC2998 cells after 48 hr by sulforhodamine B assay; conditions: HCC 2998, 48 h; for CC50: read-out: LC50 (the source's name)
[17] = tested on: COLO 205; assay: Cytotoxicity against Homo sapiens (human) COLO205 cells after 48 hr by sulforhodamine B assay; conditions: COLO 205, 48 h; for CC50: read-out: LC50 (the source's name)
[18] = tested on: NCI-H522; assay: Cytotoxicity against Homo sapiens (human) NCI-H522 cells after 48 hr by sulforhodamine B assay; conditions: NCI-H522, 48 h; for CC50: read-out: LC50 (the source's name)
[19] = tested on: NCI-H23; assay: Cytotoxicity against Homo sapiens (human) NCI-H23 cells after 48 hr by sulforhodamine B assay; conditions: NCI-H23, 48 h; for CC50: read-out: LC50 (the source's name)
[20] = tested on: HOP-62; assay: Cytotoxicity against Homo sapiens (human) HOP62 cells after 48 hr by sulforhodamine B assay; conditions: HOP-62, 48 h; for CC50: read-out: LC50 (the source's name)
[21] = tested on: A549; assay: Cytotoxicity against Homo sapiens (human) A549 cells after 48 hr by sulforhodamine B assay; conditions: A549, 48 h; for CC50: read-out: LC50 (the source's name)
[22] = tested on: RPMI-8226; assay: Cytotoxicity against Homo sapiens (human) RPMI8226 cells after 48 hr by sulforhodamine B assay; conditions: RPMI-8226, 48 h; for CC50: read-out: LC50 (the source's name)
[23] = tested on: MOLT-4; assay: Cytotoxicity against Homo sapiens (human) MOLT4 cells after 48 hr by sulforhodamine B assay; conditions: MOLT-4, 48 h; for CC50: read-out: LC50 (the source's name)
[24] = tested on: K562; assay: Cytotoxicity against Homo sapiens (human) K562 cells after 48 hr by sulforhodamine B assay; conditions: K562, 48 h; for CC50: read-out: LC50 (the source's name)
[25] = tested on: CCRF-CEM; assay: Cytotoxicity against Homo sapiens (human) CCRF-CEM cells after 48 hr by sulforhodamine B assay; conditions: for CC50: read-out: LC50 (the source's name)
[26] = tested on: MCF7; assay: Cytotoxicity against Homo sapiens (human) MCF7 cells assessed as cell growth at 10^-4 M after 48 hr by Alamar blue assay; conditions: MCF7, 48 h, read-out: Activity
[27] = tested on: NCI-H460; assay: Cytotoxicity against Homo sapiens (human) NCI-H460 cells assessed as cell growth at 10^-4 M after 48 hr by Alamar blue assay; conditions: NCI-H460, 48 h, read-out: Activity

ClCc1ccccc1Cn1cnc2c(Cl)ncnc21
GI50 [1]: 4.17 µM
LC50 [1]: 85.1 µM
TGI [1]: 15.8 µM
GI50 [2]: 3.38 µM
LC50 (concentration killing 50% of cells) [2]: 45.7 µM
TGI [2]: 12.3 µM
GI50 [3]: 3310 nM
LC50 (concentration causing 50% net cell kill) [3]: 28.2 µM
TGI [3]: 6.6 µM
GI50 [4]: 10.7 µM
LC50 (concentration killing 50% of cells) [4]: 66.1 µM
TGI [4]: 26.3 µM
GI50 [5]: 2130 nM
LC50 [5]: > 100 µM
TGI [5]: 5.24 µM
GI50 [6]: 2880 nM
TGI [6]: 11 µM
CC50 [6]: 39.8 µM
GI50 [7]: 2.29 µM
LC50 [7]: 56.2 µM
TGI [7]: 6.6 µM
GI50 [8]: 2180 nM
LC50 (concentration killing 50% of cells) [8]: 10.5 µM
TGI [8]: 4.67 µM
GI50 [9]: 3020 nM
LC50 [9]: 45.7 µM
TGI [9]: 7.41 µM
GI50 [10]: 22.9 µM
TGI [10]: 46.8 µM
CC50 [10]: 95.5 µM
GI50 [11]: 440 nM
TGI [11]: 2.34 µM
CC50 [11]: 7.41 µM
GI50 [12]: 3230 nM
TGI [12]: 10.9 µM
CC50 [12]: > 100 µM
GI50 [13]: 16.6 µM
TGI [13]: 33.1 µM
CC50 [13]: 66.1 µM
GI50 [14]: 2090 nM
TGI [14]: 4.67 µM
CC50 [14]: 43.6 µM
GI50 [15]: 1900 nM
TGI [15]: 3.71 µM
CC50 [15]: 7.08 µM
GI50 [16]: 1660 nM
TGI [16]: 3.54 µM
CC50 [16]: 7.41 µM
GI50 [17]: 3.89 µM
TGI [17]: > 100 µM
CC50 [17]: > 100 µM
GI50 [18]: 1.82 µM
TGI [18]: 7.24 µM
CC50 [18]: > 100 µM
GI50 [19]: 2040 nM
TGI [19]: 4.36 µM
CC50 [19]: 9.33 µM
GI50 [20]: 2510 nM
TGI [20]: 6.02 µM
CC50 [20]: 19.9 µM
GI50 [21]: 7.76 µM
TGI [21]: 25.7 µM
CC50 [21]: 75.9 µM
GI50 [22]: 14.1 µM
TGI [22]: 40.7 µM
CC50 [22]: > 100 µM
GI50 [23]: 1.58 µM
TGI [23]: 5.24 µM
CC50 [23]: > 100 µM
GI50 [24]: 1.2 µM
TGI [24]: 5.12 µM
CC50 [24]: > 100 µM
GI50 [25]: 1.28 µM
TGI [25]: 3.23 µM
CC50 [25]: 8.12 µM
growth at 100 µM [26]: 43%
growth at 100 µM [27]: 0%

ClCc1cccc(Cn2cnc3ncnc(Cl)c32)c1
GI50 [1]: 10.7 µM
LC50 [1]: 8.12 µM
TGI [1]: 25.7 µM
GI50 [2]: 4.16 µM
LC50 (concentration killing 50% of cells) [2]: 46.8 µM
TGI [2]: 15.8 µM
GI50 [3]: 2180 nM
LC50 (concentration causing 50% net cell kill) [3]: 38.9 µM
TGI [3]: 5.37 µM
GI50 [4]: 1.94 µM
LC50 (concentration killing 50% of cells) [4]: 18.6 µM
TGI [4]: 5.49 µM
GI50 [5]: 3090 nM
LC50 [5]: 43.6 µM
TGI [5]: 14.1 µM
GI50 [6]: 1860 nM
TGI [6]: 3.54 µM
CC50 [6]: 7.94 µM
GI50 [7]: 18.2 µM
LC50 [7]: 97.7 µM
TGI [7]: 42.6 µM
GI50 [8]: 2750 nM
LC50 (concentration killing 50% of cells) [8]: 81 µM
TGI [8]: 9.77 µM
GI50 [9]: 1730 nM
LC50 [9]: 6.76 µM
TGI [9]: 3.38 µM
GI50 [10]: 1.77 µM
TGI [10]: 3.31 µM
CC50 [10]: 6.3 µM
GI50 [11]: 2040 nM
TGI [11]: 17.4 µM
CC50 [11]: 47.9 µM
GI50 [12]: 1650 nM
TGI [12]: 3.46 µM
CC50 [12]: 47.9 µM
GI50 [13]: 1.86 µM
TGI [13]: 3.31 µM
CC50 [13]: 67.6 µM
GI50 [14]: 1940 nM
TGI [14]: 4.36 µM
CC50 [14]: > 100 µM
GI50 [15]: 1770 nM
TGI [15]: 5.24 µM
CC50 [15]: 9.54 µM
GI50 [16]: 1690 nM
TGI [16]: 3.23 µM
CC50 [16]: 40.7 µM
GI50 [17]: 2.63 µM
TGI [17]: > 100 µM
CC50 [17]: 6.3 µM
GI50 [18]: 6.16 µM
TGI [18]: 24 µM
CC50 [18]: > 100 µM
GI50 [19]: 1230 nM
TGI [19]: 3.38 µM
CC50 [19]: 5.88 µM
GI50 [20]: 2180 nM
TGI [20]: 3.98 µM
CC50 [20]: 7.41 µM
GI50 [21]: 17.4 µM
TGI [21]: 39.8 µM
CC50 [21]: 91.2 µM
GI50 [22]: 13.8 µM
TGI [22]: 34.7 µM
CC50 [22]: 89.1 µM
GI50 [23]: 10.7 µM
TGI [23]: 29.5 µM
CC50 [23]: 81.3 µM
GI50 [24]: 16.6 µM
TGI [24]: 47.9 µM
CC50 [24]: > 100 µM
GI50 [25]: 6.91 µM
TGI [25]: 22.4 µM
CC50 [25]: 60.2 µM
growth at 100 µM [26]: 1%
growth at 100 µM [27]: 0%
